# Measured values taken from patent US20160166688A9, “COMBINATION THERAPY OF AN AFUCOSYLATED CD20 ANTIBODY WITH BENDAMUSTINE” (Roche Glycart AG, priority 2009, published 2016).
# System: human Z138 mantle cell lymphoma cell line
# Experiment: Tumor growth inhibition study in vivo, Z138 xenograft
# Set-up: species or system SCID beige mice
# Conditions: for Antitumor activity / tumor growth compared to control group (words): 3 mg/kg i.p., study days 19-22, end of study day 33; for TGI (%): tumor growth inhibition vs. control group on day 33 after tumor cell inoculation, antibodies 1 mg/kg once weekly
# [1] = i.p., bendamustine 3 mg/kg days 19-22
molecule,measurement,setting,value
"Cn1c(CCCC(=O)O)nc2cc(N(CCCl)CCCl)ccc21 [Bendamustine, 4-[5-[Bis(2-chloroethyl)amino]-1-methylbenzimidazol-2-yl]buta-noic acid]",Antitumor activity / tumor growth compared to control group (words),,comparable tumor growth as the control group
same,Antitumor activity / tumor growth compared to control group (words),listed as bendamustine,did not show any antitumor activity
same,TGI (%),[1],0%
same,Parametric TCR based on sAUC,"vs. vehicle group 1, study end day 33, i.p., antibodies 1 mg/kg once weekly (days 19, 26), bendamustine 3 mg/kg days 19-22",0.9
"B-HH6-B-KV1 GE: Afucosylated glyco-engineered humanized B-Ly1 type II anti-CD20 IgG1 antibody; VH SEQ ID NO:7 (B-HH6), VL SEQ ID No. 20 (B-KV1)",TGI (%),[1],47%
